Columns and labels:
[1] = test system: Primary human fibroblasts; experiment: 8-Isoprostane release from diploid human fibroblasts; format: cell-based; settings: 100 μM, medium with 10% fetal calf serum, time course, FIG. 3C (a)
Method: (§1) (FIG. 3A) Normal human diploid fibroblasts were cultivated under standard conditions stimulating cell division, i.e. with 10% serum in the medium. Specifically, the cells were grown in high-glucose DMEM (Dulbecco's Modified Eagle's Medium) supplemented with 10% heat-inactivated FCS (fetal calf serum), 1× non-essential amino acid (NEAA) supplement, 1 mM pyruvate, 100 mg/L streptomycin and 100 U/mL penicillin. For cultivation, the cells were maintained at 37° C. in a humidified atmosphere containing 5% CO2. The cells were generally passaged on reaching approximately 90% confluence and were seeded, after counting of the PDLs (population doublings), in new dishes at a density of 10^6 cells per dish in 100 mm dishes, or at a density of 10^4 cells per well in 96-well plates. Cells were used for experiments at PDL 25-30. All cell culture reagents were from Invitrogen, Carlsbad, Calif., USA.
(FIG. 3C) 8-Isoprostanes. Cells cultivated in 96-well plates for 24 h were administered with 100 μM n-dodecyl thiol (12-SH) for the indicated time before removing the cell culture supernatant for 8-isoprostane analysis. 8-Isoprostane analysis was achieved by a commercial enzyme immunoassay (Cayman Chemicals, Ann Arbor, Mich., USA), which was conducted as detailed in the manufacturers instructions.

[2] = test system: Primary human fibroblasts; experiment: Protein polyubiquitination in diploid human fibroblasts (Western blot); format: cell-based; settings: 500 μM, medium with 10% fetal calf serum, time course, FIG. 3C (b)
Method: as §1
Protein polyubiquitination. Cells cultivated in 100 mm dishes for 24 h were administered with 500 μM n-dodecyl thiol (12-SH) for the indicated time before harvesting of the cells in lysis buffer (50 mM Tris-HCl, pH 7.4, 10% sucrose, 1 mM EDTA, 1 mM EGTA, 1 mM Na3VO4, 1 mM NaF, 1× protease inhibitor cocktail from Sigma-Aldrich, St. Louis, Mo., USA) followed by brief sonication and denaturation at 95° C. for 2 min. […] Densitometric quantification was performed using automated image analysis software.

C. elegans [3] = experiment: 8-Isoprostane in homogenates of treated nematodes; format: in vivo, Caenorhabditis elegans; settings: 0.1 mM or 0.5 mM, FIG. 4 (b)
Method: 8-Isoprostanes. Synchronized, 4-day-old adult worms distributed in cell culture flasks were administered with the indicated concentration of n-dodecyl thiol (12-SH) dissolved in ethanol (final concentration: 1%) and cultivated for 6 h or 48 has indicated. The worms were collected by centrifugation at 1200 g, washed twice with S-Basal medium, and once with DMEM medium containing 100 μM butylated hydroxytoluene (BHT). The worms were then homogenized in DMEM/BHT by sonication (3×20 s at 30 kHz on ice). Equal amounts of protein of the resulting homogenate (as per bicinchoninic acid assay from Pierce, Rockford, Ill., USA) were probed for the presence of 8-isoprostane by a commercial enzyme immunoassay (Cayman Chemicals, Ann Arbor, Mich., USA) following the manufacturer's instructions.

HT22 cells = experiment: Cytotoxic activity in cultivated HT22 cells (MTT), normoxic and hypoxic; format: cell-based, mouse; settings: 1 day or 3 days, 20% O2 vs 1% O2, FIG. 2B
Method: (FIG. 2A) HT22 are a widely used, immortalized neuronal cell line that has been generated by transforming mouse neuronal tissue with the oncogenic SV40 T-antigen (Morimoto and Koshland, Neuron 5:875-880, 1990). HT22 cells were cultivated in high-glucose DMEM (Dulbecco's Modified Eagle's Medium) supplemented with 10% heat-inactivated FCS (fetal calf serum), 1 mM pyruvate, 100 mg/L streptomycin and 100 U/mL penicillin. For routine culture, cells were grown in 100 mm dishes at 37° C. in a humidified atmosphere containing 5% CO2. They were passaged three times per week on reaching approximately 90% confluence and splitted 1:10. All cell culture reagents were from Invitrogen, Carlsbad, Calif., USA.
For cell survival experiments, HT22 cells were seeded into 96-well plates at a density of ˜5000 cells per well in 0.1 mL medium. After 24 h cultivation, the cells were administered with the indicated concentrations of the tested compounds (n-octyl thiol (8-SH) or n-dodecyl thiol (12-SH)) dissolved in ethanol (final concentration: 1%). After 1 day or 3 days of incubation as indicated, cell survival was analyzed by colorimetric MTT reduction tests (MTT is 3-(4,5-dimethylthiazol-2-yl-)-2,5 diphenyltetrazolium bromide) which were performed exactly as described (Hajieva et al., J Neurochem 110:118-132, 2009). […]

C. elegans [4] = experiment: Toxicity (survival) in nematodes in vivo; parameters: species or system Caenorhabditis elegans; settings: 0.5 mM in minimum diet with varying amounts of coliform bacteria, oral, FIG. 4 (a)
Method: Caenorhabditis elegans N2 Bristol strain animals were expanded and cultivated at 20° C. on nematode growth medium (NGM) plates in the presence of Escherichia coli strain HB101 as food source following standard protocols (Mocko et al., Neurobiol Dis 40:120-129, 2010). For the toxicity experiments, synchronized adult worms aged 2 days were maintained in liquid culture medium (S-Basal medium supplemented with 5 mg/L cholesterol, 100 mg/L streptomycin, 100 mg/L fluorodeoxyuridine (FUDR)) to which varying amounts of Escherichia coli were added (measured as optical density (OD) at 600 nm wavelength) as described (Mair et al., PLoS One 4:e4535, 2009). Worms distributed in 48-well plates were administered with 500 μM n-dodecyl thiol (12-SH) dissolved in ethanol (final concentration: 1%) and analyzed, after the indicated time, for survival by visual inspection and mechanical stimulation (nose-touch assay) as detailed (Mocko et al., Neurobiol Dis 40:120-129, 2010).

Drosophila melanogaster = experiment: Ultrastructural effects in fruit flies in vivo (electron microscopy); settings: 1 mM in the feed, electron micrographs
Method: Male Drosophila melanogaster (strain Oregon-R) were maintained at 25° C. in plastic vials covered with air-permeable lids and received standard food (50 g/L refined household sugar, 50 g/L baker's yeast, and 20 g/L agar powder). The medium was boiled under stirring, adding the following supplements at approximately 70° C.: 3 g/L methylparabene (dissolved in ethanol, final concentration: 0.15%), 3 mL/L propionic acid and the appropriate amount of n-dodecyl thiol (12-SH) dissolved in ethanol (final concentration: 0.1%). Synchronized male flies were transferred into new vials and scored for survival every other day. Treatment started on day 2 of adulthood. Electron microscopy. Flies harvested after 50 days of treatment were cryofixed by plunge freezing, cut into head, thorax and abdomen before chemical fixation for 90 min with 3% glutaraldehyde and 3% formaldehyde in PBS. The tissues were washed, fixed with 2% OsO4, washed again, dehydrated with rising concentrations of ethanol, transitionally stabilized with propylene oxide and embedded into epoxy resin essentially as described (Bozzola and Russel, Electron Microscopy: Jones and Bartlett Publishers, Inc., Sudbury, M A, 1999). The polymerized blocks were mounted, trimmed, and sectioned in an ultramicrotome before transfer onto electron microscopy grids. Images were acquired under standard conditions in a Tecnai Transmission Electron Microscope (FEI Company, Hillsboro, Oreg., USA).

[5] = test system: Native lipid membranes from rat brain; experiment: Lipid peroxidation (malondialdehyde/TBARS) in native rat brain membranes; format: biochemical
Method: Native biological membranes from adult rat brain were prepared by differential centrifugation as described (Moosmann and Behl, Proc Nati Acad Sci USA 96:8867-8872, 1999). Samples containing 0.5 mg/ml total protein (as per bicinchoninic acid assay from Pierce, Rockford, Ill., USA) were solubilized by brief sonication in PBS (phosphate-buffered saline) and administered with the indicated concentrations of n-dodecyl thiol (12-SH; from Sigma-Aldrich, St. Louis, Mo., USA) dissolved in ethanol (final concentration: 0.1%). Subsequently, 10 μM Fe^2+/200 μM ascorbate were added as radical-initiating mix; controls received vehicle (water). After the indicated time, the reaction was stopped by adding 2.5 volumes of 5% trichloroacetic acid in 1 M acetic acid, followed by centrifugation (10,000 g for 10 min). Subsequently, thiobarbituric acid-reactive substances (TBARS) as marker of lipid peroxidation were quantified fluorimetrically as detailed before (Hajieva et al., J Neurochem 110:118-132, 2009).

CCCCCCCCCCCCS [n-dodecylthiol]
concentration of released lipid peroxidation marker 8-isoprostane [1]: increased significantly within a few hours
amount of polyubiquitinated proteins in the cell (marker of protein damage) [2]: increased significantly within a few hours
concentration of lipid peroxidation marker 8-isoprostane in worm homogenates (C. elegans [3]): increased to a constant maximum after only 6 h
cytotoxic effectiveness under hypoxic versus normal oxygen conditions (HT22 cells): not compromised by hypoxic conditions
worms killed / toxicity in vivo (C. elegans [4]): led to death after a few days
myofibrillar structure (Drosophila melanogaster; FIG. 5A): intact
ultrastructural effect on muscle mitochondria (Drosophila melanogaster; FIG. 5A): intramitochondrial, spiral multilamellar lesions
ultrastructural lesions in the nervous system (a, b) and photoreceptor cells (c) (Drosophila melanogaster; FIG. 5B): spiral multilamellar lesions of mitochondrial origin
other damage phenotype, nervous system (b) (Drosophila melanogaster; FIG. 5B (b)): vacuolization and electron-dense aggregation
other damage phenotype, photoreceptor cells (c) (Drosophila melanogaster; FIG. 5B (c)): bright lipofuscin accumulation
extent of lipid peroxidation (as malondialdehyde) ([5]; absence of any radical initiation ("dead membranes"), FIG. 1 (a)): absence of any effect
extent of lipid peroxidation (as malondialdehyde) ([5]; low level of free radical initiator (iron/ascorbate) added, FIG. 1 (b)): massively amplified

— US20220387369A1, “Prooxidative chain-transfer agents for use in the treatment of malignant tumour or infectious diseases” (Universitätsmedizin der Johannes Gutenberg-Universität Mainz, priority 2019, published 2022)
